What all share (assay): NCI anticancer screen, dose series, 48 h
Test [1] has as its system HCT-15 colon.
In test [2] the test system is OVCAR-4 ovarian.
In test [3] the test system is UACC-257 melanoma.
Test [4] relates to SNB-19 CNS.
Test [5] has as its system SK-MEL-28 melanoma.
Test [6] has as its system MOLT-4 leukemia.
Test [7] deals with M14 melanoma.
The test system of test [8] is OVCAR-8 ovarian.
The test system of test [9] is DU-145 prostate.

The structures appear in SMILES notation. Several values for one entry are separate records, joined by “and”; a condition that tells them apart may be missing. Equal entries are not always repeated.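 Five concentrations, 48 hours, 96-well plates. At the GI50, growth is halved. The concentration for full growth arrest is given as TGI.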

On to `CC1(O)CC2C(CC1SCc1ccccc1)C2(C)C` (centres undefined), for which the TGI in test [1] was 65 µM and 30.6 µM; in test [2] it was > 100 µM and 29.3 µM; in test [3], 59.5 µM and 24.7 µM; in test [4], > 100 µM and 30.7 µM; in test [5], > 100 µM and 35.4 µM; in [6], 25.1 µM and 47.7 µM. The TGI in test [7] is 87.2 µM and 28.9 µM; in test [8], > 100 µM and 30.9 µM. Besides, the GI50 in test [2] is 52.8 µM and 15.6 µM; in test [3], 26.2 µM and 12 µM; in test [4], 45.2 µM and 16.7 µM; in [6], 4.09 µM and 18.4 µM.
Consider `O=C(/C=N/O)Nc1cccc(Cl)c1I`, for which the TGI in [1], in [2], in [3], in test [4], in test [5] and in test [6] was above 100 µM throughout. Also, the TGI in test [7] and in [8] was above 100 µM each time.
For `CNC(=O)N(CCCCC(NC(C)=O)C(=O)NCc1ccccc1)Cc1ccccc1` (centres undefined), the TGI in [1], in [2], in test [3], in test [4], in [5] and in test [6] was above 100 µM each time. In addition, the TGI in [7] and in test [8] was above 100 µM in each case.
On to `COc1ccc(/C(C#N)=C2/O/C(=N/N)C(c3ccc(OC)c(OC)c3)C2=O)cc1OC` (centres undefined), for which the TGI in test [1], in test [3], in test [5], in [6] and in test [7] was above 100 µM in each case.
As for `CCOc1ccc(N=Nc2c(-c3ccccc3)nn(C(=O)CC(=O)Nc3ccccc3Cl)c2-c2ccccc2)cc1`, the TGI in test [2], in test [3], in test [4], in test [5], in test [6] and in [7] was above 100 µM throughout. In test [8], this compound returned a TGI above 100 µM.
Take `COc1cc(COC(=O)N(C)[C@@H](Cc2ccccc2)C(=O)O)c([N+](=O)[O-])cc1OC`: the TGI in test [1], in [3], in test [4], in test [6], in test [7] and in test [8] was above 100 µM in each case. In [9], this compound yielded a TGI above 100 µM.
For `COc1cc2c(c(OC)c1OC)-c1ccc(SC)c(=O)cc1C(CC(=O)Oc1ccccc1F)C2` (centres undefined), the TGI in test [1] is 0.248 µM; in test [2], above 7.5 µM; in test [4] it was above 7.5 µM; in [5], above 7.5 µM; in test [6] it was above 7.5 µM; in test [7] it was 0.908 µM. In [8], this compound registered a TGI above 7.5 µM.
With `CCOC(=O)C(=O)Nc1nc2ccc(OC)cc2s1`, the TGI in test [1], in [2], in test [3], in test [4], in [5] and in test [6] was above 100 µM each time. Moreover, the TGI in test [7] and in [8] was above 100 µM each time.
In the case of `Nc1cccc(C(=O)/C=C/c2ccccc2O)c1`, the TGI in [1], in test [3], in [4], in test [5], in [6] and in test [7] was above 100 µM throughout. Also, the TGI in test [8] is above 100 µM.
As to `COc1cc([C@H]2c3cc4c(cc3[C@H](NCc3ccc(F)cc3)C3COC(=O)[C@H]32)OCO4)cc(OC)c1O` (some centres undefined), the TGI was 16.2 µM in test [1]; above 100 µM in [2]; 43.6 µM in [3]; 51.2 µM in [4]; 37 µM in test [5]; 6.42 µM in [6]. Further, the values for the TGI in [7] and in test [8] were 13.6 µM and 35.1 µM, respectively.
As for `NC(=O)N1N=C2c3ccccc3OC[C@H]2[C@@H]1c1ccccc1`, the TGI was above 81.6 µM in test [1]; above 100 µM in [2]; above 100 µM in test [3]; above 100 µM in test [4]; above 100 µM in test [5]; 97.2 µM in [6]. In addition, the TGI in [7] came out at 5.59 µM; in [8], 27.2 µM.
Consider `COc1ccc(C2C(C(=O)O)=C(COC(C)=O)Oc3cc4c(cc32)OCO4)c(OC)c1` (centres undefined), for which the TGI in [1], in [2], in [3], in test [4], in test [5] and in [6] was above 100 µM in each case. The TGI in [7] and in test [8] was above 100 µM throughout.
Consider `CCOC(=O)c1cnc2c(ccc3ncccc32)c1OCC`, for which the TGI in test [1], in [2], in test [3], in test [4], in test [5] and in [6] was above 100 µM each time. The TGI in [7] and in test [8] was above 100 µM each time.
As for `O=S1(=O)CS(=O)(=O)OCCCCCO1`, the TGI in [1], in test [2], in [3], in test [4], in [5] and in [7] was above 100 µM in each case. In [8], the TGI is above 100 µM.
Take `Cc1cc(N(CCC#N)CCC#N)ccc1/C=C1N=C(/C=C\c2ccccc2)N(c2ccc(C(=O)O)cc2)C\1=O`: the TGI in test [1], in [2], in test [3], in test [4], in [5] and in test [6] was above 100 µM throughout. For the same compound, the TGI in [7] and in test [8] was above 100 µM in each case.
On to `CN(C)CCC(/C=C/c1ccccc1)=N\Nc1c(F)c(F)c(F)c(F)c1F`, for which the TGI in test [1], in test [2], in [3], in test [4], in [5] and in [6] was above 100 µM throughout. Moreover, the TGI in test [7] and in test [8] was above 100 µM throughout.

For the origin of these results see PubChem BioAssay (NCI).
